Reference: patent publication US12281225B2, “Process for preparing stable polymers containing vinylimidazole” (BASF SE, priority 2018, dated 2025)

Experiments:
[1] = Analysis of active substance: preservative concentration before and after storage in VI-containing polymer solution; type: physicochemical; details: for active-substance concentration, 0 d, RT: before storage; for active-substance concentration, 14 d, 40° C.: storage 14 d at 40° C.; for active-substance concentration, 28 d, 40° C.: storage 28 d at 40° C.; for active-substance concentration, 60 d 40° C.: storage 60 d at 40° C.
Method: Stability of Preservatives in VI-Containing Polymers:
The following stabilizers for VI-containing polymers (here: aqueous solution of a copolymer of vinylpyrrolidone and vinylimidazole) were tested.
MIT, BIT, CMIT, OIT, DCOIT and iodopropynyl butyl carbamate were determined by RP chromatography with UV detection after dilution of the sample to be tested. An RP18 column was used for this purpose, with an eluent composed of an acid-methanol mixture under isocratic conditions.

[2] = Iodine color number according to DIN 6162:2014-09; type: physicochemical
[3] = test system: Yeast: Candida albicans, Candida valida, Rhodotorula rura, Saccharomyces cerevisiae; experiment: Preservation test with periodic inoculation, yeast assessment; type: cell-based; details: for 60 d 40° C., yeast assess., 4th inoculation: sample stored 60 d at 40° C.; for Start sample measurement, yeast assess., 4th inoculation: freshly formulated
Method: (§1) Microbiological results at the start (freshly formulated, i.e. 4-week test series is started immediately) and after 60 days of storage at 40° C. (i.e. the 4-week microbial testing is started with the sample stored at 40° C. for 60 days)
(§2) The test described below is carried out in order to ascertain the preserving effect of chemical preservatives in aqueous products and systems, the principle of the described method reflecting the efficacy of chemical preservatives with respect to pot-maintenance of aqueous products/systems under conditions corresponding to the use of laundry products/consumer products by the consumer. For this purpose, the preservatives to be tested are added in those concentrations which correspond to from the literature or to the manufacturer data from the suppliers (e.g. Thor, Speyer). In said test, our orientation was toward the upper range, which, with the exception of VI-containing polymers, had always led to excellent results in the case of aqueous polymers for laundry.
(§3) A constant microorganism load is achieved by periodic inoculation of the test batches. Before the swabs of each batch made respectively immediately in parallel with the inoculation. The assessment is made on the basis of the microbial growth of the streaks.
(§4) When carrying out said tests, 25 g of the polymer to be tested are weighed in each case into a vessel with a screw cap. The preservatives to be tested are each added in separate batches according to the specified use concentrations. An unpreserved product sample was used in each case for the growth control. Two days after the addition of the preservative, the samples are infected with 0.5 ml of inoculum (2% w/w). The titer of this inoculant solution is 10^9 organisms per ml. The following microorganisms are the test organisms for the preservation test:
(§5) • Escherichia coli • Staphylococcus aureus • Pseudomonas aeruginosa • Pseudomonas putida • Burkholderia cepacia • Alcaligenes faecalis Yeast: • Candida albicans • Candida valida • Rhodotorula rura • Saccharomyces cerevisiae
(§6) The test batches are inoculated four times altogether and once a week and are streaked on an agar plate once a week; the first streaking is done immediately before the new inoculation. Microbial growth on the agar surface is assessed after a three-day incubation at 25° C. As a precaution, negative swabs are additionally observed for a further three days and reassessed. The preserving effect is effected in a semiquantitative method via the growth of the individual streaks in accordance with the assessment from − via + to +++. The preservative result is repeatedly demonstrably robust, i.e. +++− defines the microbial growth.
(§7) When assessing the results, it is assumed that a preservative can be regarded as good if there are batches under the above-described laboratory conditions for a period of four weeks without microbial invasion of the sample, and that, even after the fourth inoculation, no microbial attacks occur growth can be identified. • −−: no growth • −: slight growth, max. 100 colonies • 0: moderate growth, max. 400 colonies • +: uniform growth with individual colonies still easily identifiable • ++: strong growth; too many colonies to be counted, already some extensive growth

[4] = test system: Bacteria: Escherichia coli, Staphylococcus aureus, Pseudomonas aeruginosa, Pseudomonas putida, Burkholderia cepacia, Alcaligenes faecalis; experiment: Preservation test with periodic inoculation, bacteria assessment; type: cell-based; details: Polymer P4; sample stored 60 d at 40° C.
Method: as §1, §2, §3, §4, §5, §6, §7

[5] = Polymer P5 (HP56) with stabilizer

With CCCCCCCCCCCCCCCC[N+](C)(C)Cc1ccccc1.[Cl-] [Polymer 16-BAC, cetylalkonium chloride] the “active-substance concentration, 0 d, RT” value ([1]; in Polymer P1) was 1000 ppm, the “active-substance concentration, 14 d, 40° C.” value ([1]; in Polymer P1) was 960 ppm and the “active-substance concentration, 28 d, 40° C.” value ([1]; in Polymer P1) was 960 ppm. The “active-substance concentration, 60 d 40° C.” value ([1]; in Polymer P1) was 940 ppm, the “active-substance concentration, 0 d, RT” value ([1]; in Polymer P2) was 1000 ppm and the “active-substance concentration, 14 d, 40° C.” value ([1]; in Polymer P2) was 960 ppm. The “active-substance concentration, 28 d, 40° C.” value ([1]; in Polymer P2) was 960 ppm, the “active-substance concentration, 60 d 40° C.” value ([1]; in Polymer P2) was 940 ppm and the “active-substance concentration, 0 d, RT” value ([1]; in Polymer P3) was 1000 ppm. For the same compound, the “active-substance concentration, 14 d, 40° C.” value ([1]; in Polymer P3) was 975 ppm, the “active-substance concentration, 28 d, 40° C.” value ([1]; in Polymer P3) was 968 ppm and the “active-substance concentration, 60 d 40° C.” value ([1]; in Polymer P3) was 952 ppm. For the same compound, the “active-substance concentration, 0 d, RT” value ([1]; in Polymer P4) was 1000 ppm, the “active-substance concentration, 14 d, 40° C.” value ([1]; in Polymer P4) was 964 ppm and the “active-substance concentration, 28 d, 40° C.” value ([1]; in Polymer P4) was 960 ppm. The “active-substance concentration, 60 d 40° C.” value ([1]; in Polymer P4) was 944 ppm, the “active-substance concentration, 0 d, RT” value ([1]; in Polymer P5 (HP56)) was 1000 ppm and the “active-substance concentration, 14 d, 40° C.” value ([1]; in Polymer P5 (HP56)) was 960 ppm. For the same compound, the “active-substance concentration, 28 d, 40° C.” value ([1]; in Polymer P5 (HP56)) was 960 ppm, the “active-substance concentration, 60 d 40° C.” value ([1]; in Polymer P5 (HP56)) was 940 ppm and the “active-substance concentration, 0 d, RT” value ([1]; in Polymer P6) was 1000 ppm. For the same compound, the “active-substance concentration, 14 d, 40° C.” value ([1]; in Polymer P6) was 970 ppm, the “active-substance concentration, 28 d, 40° C.” value ([1]; in Polymer P6) was 961 ppm and the “active-substance concentration, 60 d 40° C.” value ([1]; in Polymer P6) was 954 ppm. For the same compound, the “active-substance concentration, 0 d, RT” value ([1]; in Polymer P7) was 1000 ppm, the “active-substance concentration, 14 d, 40° C.” value ([1]; in Polymer P7) was 975 ppm and the “active-substance concentration, 28 d, 40° C.” value ([1]; in Polymer P7) was 966 ppm. The “active-substance concentration, 60 d 40° C.” value ([1]; in Polymer P7) was 953 ppm, the “active-substance concentration, 0 d, RT” value ([1]; in Polymer P8) was 1000 ppm and the “active-substance concentration, 14 d, 40° C.” value ([1]; in Polymer P8) was 960 ppm. The “active-substance concentration, 28 d, 40° C.” value ([1]; in Polymer P8) was 960 ppm, the “active-substance concentration, 60 d 40° C.” value ([1]; in Polymer P8) was 940 ppm and the “active-substance concentration, 0 d, RT” value ([1]; in Polymer P9) was 1000 ppm. For the same compound, the “active-substance concentration, 14 d, 40° C.” value ([1]; in Polymer P9) was 960 ppm, the “active-substance concentration, 28 d, 40° C.” value ([1]; in Polymer P9) was 960 ppm and the “active-substance concentration, 60 d 40° C.” value ([1]; in Polymer P9) was 940 ppm. The “Iodine color number, 60 d 40° C.” value ([2]; Polymer P1 with stabilizer) was 2.7, the “Iodine color number, start” value ([2]; Polymer P1 with stabilizer) was 2.6 and the “Iodine color number, 60 d 40° C.” value ([2]; Polymer P2 with stabilizer) was 3.1. The “Iodine color number, start” value ([2]; Polymer P2 with stabilizer) was 3.0, the “Iodine color number, 60 d 40° C.” value ([2]; Polymer P3 with stabilizer) was 3.3 and the “Iodine color number, start” value ([2]; Polymer P3 with stabilizer) was 3.1. For the same compound, the “Iodine color number, 60 d 40° C.” value ([2]; Polymer P4 with stabilizer) was 3.3, the “Iodine color number, start” value ([2]; Polymer P4 with stabilizer) was 3.1 and the “Iodine color number, 60 d 40° C.” value [2, 5] was 3.3. The “Iodine color number, start” value [2, 5] was 3.4, the “Iodine color number, 60 d 40° C.” value ([2]; Polymer P6 with stabilizer) was 3.5 and the “Iodine color number, start” value ([2]; Polymer P6 with stabilizer) was 3.4. The “Iodine color number, 60 d 40° C.” value ([2]; Polymer P7 with stabilizer) was 3.5, the “Iodine color number, start” value ([2]; Polymer P7 with stabilizer) was 3.4 and the “Iodine color number, 60 d 40° C.” value ([2]; Polymer P8 with stabilizer) was 3.5. The “Iodine color number, start” value ([2]; Polymer P8 with stabilizer) was 3.2, the “Iodine color number, 60 d 40° C.” value ([2]; Polymer P9 with stabilizer) was 3.9 and the “Iodine color number, start” value ([2]; Polymer P9 with stabilizer) was 3.7. For the same compound, the “60 d 40° C., yeast assess., 4th inoculation” value ([3]; Polymer P1) was “− (slight growth, max. 100 colonies)”, the “Start sample measurement, yeast assess., 4th inoculation” value (from here on “Start sample measurement”) ([3]; Polymer P2) was “− (slight growth, max. 100 colonies)” and the “60 d 40° C., yeast assess., 4th inoculation” value ([3]; Polymer P2) was “− (slight growth, max. 100 colonies)”. The “Start sample measurement” value ([3]; Polymer P3) was “− (slight growth, max. 100 colonies)”, the “60 d 40° C., yeast assess., 4th inoculation” value ([3]; Polymer P3) was “− (slight growth, max. 100 colonies)” and the “Start sample measurement” value ([3]; Polymer P4) was “− (slight growth, max. 100 colonies)”. The “60 d 40° C., yeast assess., 4th inoculation” value ([3]; Polymer P4) was “− (slight growth, max. 100 colonies)”, the “Start sample measurement” value ([3]; Polymer P5 (HP56)) was “− (slight growth, max. 100 colonies)” and the “60 d 40° C., yeast assess., 4th inoculation” value ([3]; Polymer P5 (HP56)) was “− (slight growth, max. 100 colonies)”. The “Start sample measurement” value ([3]; Polymer P6) was “− (slight growth, max. 100 colonies)”, the “60 d 40° C., yeast assess., 4th inoculation” value ([3]; Polymer P6) was “− (slight growth, max. 100 colonies)” and the “Start sample measurement” value ([3]; Polymer P7) was “− (slight growth, max. 100 colonies)”. The “60 d 40° C., yeast assess., 4th inoculation” value ([3]; Polymer P7) was “− (slight growth, max. 100 colonies)”, the “60 d 40° C., yeast assess., 4th inoculation” value ([3]; Polymer P8) was “− (slight growth, max. 100 colonies)” and the “60 d 40° C., yeast assess., 4th inoculation” value ([3]; Polymer P9) was “− (slight growth, max. 100 colonies)”. For the same compound, the “60 d 40° C., bact. assess., 4th inoculation” value [4] was “− (slight growth, max. 100 colonies)”.
